Columns and labels:
Format in all cases: in vivo, human
[1] = system: patients having Fragile X Syndrome (FXS); assay: Aberrant Behavior Checklist-Community Edition (ABC-C) scores in clinical study, by FMR1 methylation status / mRNA expression; settings: for ABC-C improvement in response over placebo / ABC-C Subscale I (Irritability), treatment difference / ABC-C Subscale II (Lethargy), treatment difference / ABC-C Subscale III (Stereotype), treatment difference / ABC-C Subscale IV (Hyperactivity), treatment difference / ABC-C Subscale V (Inappropriate Speech), treatment difference / ABC-C Total of subscales, treatment difference: day 19; for ABC-C Subscale I (Irritability), treatment difference / ABC-C Subscale II (Lethargy), treatment difference / ABC-C Subscale III (Stereotype), treatment difference / ABC-C Subscale IV (Hyperactivity), treatment difference / ABC-C Subscale V (Inappropriate Speech), treatment difference / ABC-C Total of subscales, treatment difference: versus placebo, adjusted for baseline
Excerpt: (§1) As used herein, “an mGluR5 responder” is an individual having FXS who is likely following therapeutic treatment with an mGluR5 antagonist to show improved behavioral symptoms as assessed using the Aberrant Behavior Checklist—Community Edition (ABC-C) measure of behavior (Bihm et al., Am. J. Ment Retard 96:209-211). The ABC-C measurement looks at various behaviors including stereotypic behavior, hyperactivity, inappropriate speech, and restricted interests. […] The behavioral symptoms may also be assessed by other methods, such as Clinical Global Impression (CGI) scale, Social Responsiveness Scale (SRS), or Repetitive Behavior Scale-Revised (RBS-R). Individuals showing an improvement according to these tests will also be determined to be an mGluR5 responder.
(§2) The present examples were performed as a follow up to a clinical trial which investigated whether the mGluR5 antagonist (−)-(3aR,4S,7aR)-4-Hydroxy-4-m-tolylethynyl-octahydro-indole-1-carboxylic acid methyl ester could provide beneficial treatment to a subject having FXS. The present study was set up to identify if a subset of patients exist that respond to (−)-(3aR,4S,7aR)-4-Hydroxy-4-m-tolylethynyl-octahydro-indole-1-carboxylic acid methyl ester treatment. In an attempt to identify such a subset of patients who respond to (−)-(3aR,4S,7aR)-4-Hydroxy-4-m-tolylethynyl-octahydro-indole-1-carboxylic acid methyl ester treatment, a study was conducted to investigate the relationship between FMR1 methylation/mRNA expression and (−)-(3aR,4S,7aR)-4-Hydroxy-4-m-tolylethynyl-octahydro-indole-1-carboxylic acid methyl ester efficacy in the study.
(§3) Among the 30 patients who completed the clinical study, 26 consented for pharmacogenetic/pharmacogenomic assessments. Genomic DNA was extracted from whole blood according to the instructions from Gentra (Minneapolis, Minn.). Total RNA was extracted from whole blood according to the instructions from Qiagen (Valencia, Calif.). A total of 26 DNA and 24 RNA samples were successfully extracted and analyzed. In addition, normal control DNAs were purchased from Coriell Institute (Camden, N.J.).
(§4) Genomic DNA was treated with bisulfite (Qiagen, Valencia, Calif.). MSP was performed using the CpG WIZ Fragile X Amplification Kit from Chemicon (Temecula, Calif.) according to manufacture's instruction. A total of 26 patients and 4 normal controls were analyzed.
(§5) FMR1 mRNA expression was measured by Taqman real-time PCR. The primers and probe were designed by Applied Biosystems (Foster City, Calif.; fragile X mental retardation 1 Hs 00924544_ml, Glyceraldehyde-3-phosphate dehydrogenase Hs 99999905_ml; ubiquitin C Hs 00824723_ml)
(§6) The expression levels of the control genes, GAPDH and UBC, were used to adjust for inter-sample variability. The data is presented as normalized Ct (cycle threshold). A Ct value≧36 is considered to be the background of the assay. A total of 24 patients and 9 normal controls were analyzed.
(§7) Genomic DNA was treated with […] (Qiagen, Valencia, Calif.). The following primers were used to amplify the FMR1 promoter with 22 CpG sites: 5′-[…]-3′ (SEQ ID NO:10); and 5′-[…]-3′ (SEQ ID NO:11). The 196-bp FMR1 promoter was cloned using the TA cloning kit from Invitrogen (Carlsbad, Calif.) and 7-13 clones per patient were sequenced using ABI3730XL (Foster City, Calif.). More details can be found in the BMD report. A total of 26 patients and 4 normal controls were analyzed.

[2] = system: patients having Fragile X Syndrome (FXS); assay: Clinical Global Impression (CGI) scale in clinical study, by FMR1 methylation status / mRNA expression; settings: for CGI-global improvement, treatment difference / CGI-efficacy index, treatment difference: versus placebo, adjusted for baseline; for CGI-global improvement, treatment difference: decrease = improvement; for CGI-efficacy index, treatment difference: increase = improvement
Excerpt: as §1, §2, §3, §4, §5, §6, §7

[3] = system: patients having Fragile X Syndrome (FXS); assay: Clinical response versus placebo in clinical study (measure not given)
Excerpt: As used herein, “an mGluR5 responder” is an individual having FXS who is likely following therapeutic treatment with an mGluR5 antagonist to show improved behavioral symptoms as assessed using the Aberrant Behavior Checklist—Community Edition (ABC-C) measure of behavior (Bihm et al., Am. J. Ment Retard 96:209-211). The ABC-C measurement looks at various behaviors including stereotypic behavior, hyperactivity, inappropriate speech, and restricted interests. […] The behavioral symptoms may also be assessed by other methods, such as Clinical Global Impression (CGI) scale, Social Responsiveness Scale (SRS), or Repetitive Behavior Scale-Revised (RBS-R). Individuals showing an improvement according to these tests will also be determined to be an mGluR5 responder. […]
Among the 30 patients who completed the clinical study, 26 consented for pharmacogenetic/pharmacogenomic assessments. […] A total of 26 DNA and 24 RNA samples were successfully extracted and analyzed. […]
Genomic DNA was treated with bisulfite (Qiagen, Valencia, Calif.). […] A total of 26 patients and 4 normal controls were analyzed.
FMR1 mRNA expression was measured by Taqman real-time PCR. […]
The expression levels of the control genes, GAPDH and UBC, were used to adjust for inter-sample variability. […] A total of 24 patients and 9 normal controls were analyzed. […]

[4] = system: patients having Fragile X Syndrome (FXS); assay: Clinical Global Impression (CGI) scale in clinical study, by FMR1 methylation status / mRNA expression; settings: day 19; patients fully methylated (probe-based methylation assay, 12 patients analysed) and/or not expressing FMR1 mRNA; p<0.001
[5] = fully methylated patients after reclassification (MSP, bisulfite-sequencing, additional MSP), p<0.001
[6] = patients who did not express FMR1 mRNA (n = 7)
[7] = patients who expressed FMR1 mRNA (n = 17)
[8] = patients with full methylation (n = 8)
[9] = patients with partial methylation (n = 18)
[10] = reclassified: patients with full methylation (determined by MSP and sequencing) (n = 7)
[11] = reclassified: patients with partial methylation (determined by MSP and sequencing) (n = 18)
[12] = day 19, patients who did not express FMR1 mRNA (n = 7)
[13] = day 19, patients who expressed FMR1 mRNA (n = 17)
[14] = day 19, patients with full methylation (n = 8)
[15] = day 19, patients with partial methylation (n = 18)
[16] = day 19, reclassified: patients with full methylation (by MSP and sequencing) (n = 7)
[17] = day 19, reclassified: patients with partial methylation (by MSP and sequencing) (n = 18)

`COC(=O)N1CC[C@@H]2[C@H]1CCC[C@@]2(O)C#Cc1cccc(C)c1` [(−)-(3aR,4S,7aR)-4-Hydroxy-4-m-tolylethynyl-octahydro-indole-1-carboxylic acid methyl ester] was tested, and the “ABC-C improvement in response over placebo” value ([1]; patients fully methylated (initial MSP) or not expressing FMR1 mRNA, p<0.001) was “significantly greater improvement”, the “ABC-C improvement in response over placebo” value ([1]; patients fully methylated (probe-based methylation assay, 12 patients analysed) and/or not expressing FMR1 mRNA, p<0.001) was “significantly greater improvement” and the “ABC-C response versus placebo” value [1, 5] was “significantly higher than placebo”. The “ABC-C Subscale I (Irritability), treatment difference” value [1, 6] was −3.69, the “ABC-C Subscale II (Lethargy), treatment difference” value [1, 6] was −6.71 and the “ABC-C Subscale III (Stereotype), treatment difference” value [1, 6] was −3.03. The “ABC-C Subscale IV (Hyperactivity), treatment difference” value [1, 6] was −9.12, the “ABC-C Subscale V (Inappropriate Speech), treatment difference” value (from here on “ABC-C Subscale V … treatment difference”) [1, 6] was −4.66 and the “ABC-C Total of subscales, treatment difference” value [1, 6] was −32.19. The “ABC-C Subscale I (Irritability), treatment difference” value [1, 7] was −0.81, the “ABC-C Subscale II (Lethargy), treatment difference” value [1, 7] was 1.93 and the “ABC-C Subscale III (Stereotype), treatment difference” value [1, 7] was 0.32. The “ABC-C Subscale IV (Hyperactivity), treatment difference” value [1, 7] was −0.16, the “ABC-C Subscale V … treatment difference” value [1, 7] was 1.09 and the “ABC-C Total of subscales, treatment difference” value [1, 7] was 2.23. For the same compound, the “ABC-C Subscale I (Irritability), treatment difference” value [1, 8] was −4.33, the “ABC-C Subscale II (Lethargy), treatment difference” value [1, 8] was −6.55 and the “ABC-C Subscale III (Stereotype), treatment difference” value [1, 8] was −3.96. The “ABC-C Subscale IV (Hyperactivity), treatment difference” value [1, 8] was −8.77, the “ABC-C Subscale V … treatment difference” value [1, 8] was −4.48 and the “ABC-C Total of subscales, treatment difference” value [1, 8] was −30.85. The “ABC-C Subscale I (Irritability), treatment difference” value [1, 9] was −0.67, the “ABC-C Subscale II (Lethargy), treatment difference” value [1, 9] was 3.76 and the “ABC-C Subscale III (Stereotype), treatment difference” value [1, 9] was 0.89. For the same compound, the “ABC-C Subscale IV (Hyperactivity), treatment difference” value [1, 9] was 0.42, the “ABC-C Subscale V … treatment difference” value [1, 9] was 1.09 and the “ABC-C Total of subscales, treatment difference” value [1, 9] was 5.66. The “ABC-C Subscale I (Irritability), treatment difference” value [1, 10] was −2.66, the “ABC-C Subscale II (Lethargy), treatment difference” value [1, 10] was −5.53 and the “ABC-C Subscale III (Stereotype), treatment difference” value [1, 10] was −5.06. The “ABC-C Subscale IV (Hyperactivity), treatment difference” value [1, 10] was −8.55, the “ABC-C Subscale V … treatment difference” value [1, 10] was −4.31 and the “ABC-C Total of subscales, treatment difference” value [1, 10] was −27.82. The “ABC-C Subscale I (Irritability), treatment difference” value [1, 11] was −1.15, the “ABC-C Subscale II (Lethargy), treatment difference” value [1, 11] was 2.66 and the “ABC-C Subscale III (Stereotype), treatment difference” value [1, 11] was 0.78. The “ABC-C Subscale IV (Hyperactivity), treatment difference” value [1, 11] was −0.21, the “ABC-C Subscale V … treatment difference” value [1, 11] was 0.81 and the “ABC-C Total of subscales, treatment difference” value [1, 11] was 3.10. For the same compound, the “CGI-efficacy index improvement in response over placebo” value ([2]; day 19, patients fully methylated (initial MSP) or not expressing FMR1 mRNA, p<0.001) was “significantly greater improvement”, the “CGI-efficacy index response versus placebo” value [2, 5] was “significantly higher than placebo” and the “CGI-global improvement, treatment difference” value [2, 12] was −2.02. For the same compound, the “CGI-efficacy index, treatment difference” value [2, 12] was 1.99, the “CGI-global improvement, treatment difference” value [2, 13] was 0.56 and the “CGI-efficacy index, treatment difference” value [2, 13] was −0.47. The “CGI-global improvement, treatment difference” value [2, 14] was −1.94, the “CGI-efficacy index, treatment difference” value [2, 14] was 1.86 and the “CGI-global improvement, treatment difference” value [2, 15] was 0.67. For the same compound, the “CGI-efficacy index, treatment difference” value [2, 15] was −0.58, the “CGI-global improvement, treatment difference” value [2, 16] was −1.78 and the “CGI-efficacy index, treatment difference” value [2, 16] was 1.76. For the same compound, the “CGI-global improvement, treatment difference” value [2, 17] was 0.58, the “CGI-efficacy index, treatment difference” value [2, 17] was −0.43 and the “Difference between compound and placebo” value ([3]; patients partially methylated (initial MSP) or expressing FMR1 mRNA) was “no significant differences”. The “Difference between compound and placebo” value ([3]; patients partially methylated (probe-based methylation assay) or expressing FMR1 mRNA) was “no significant differences” and the “CGI-efficacy index improvement in response over placebo” value [4] was “significantly greater improvement”.

Reference: patent US20130052644A1, “Predictive Markers Useful in the Treatment of Fragile X Syndrome (FXS)” (priority 2010, published 2013)
